{"source": "EPA's ToxValDB 9.5 (doi:10.2903/j.efsa.2006.65r)", "key": {"[1]": {"system": "Bibionidae", "conditions": "chronic/long-term"}, "[2]": {"system": "Colinus virginianus"}, "[3]": {"system": "Pontoscolex corethrurus", "conditions": "acute; mortality"}, "[4]": {"system": "Lepomis macrochirus", "conditions": "acute, duration: 96 hours"}, "[5]": {"system": "Daphnia magna", "conditions": "chronic/long-term; duration: 21 days"}, "[6]": {"system": "Oncorhynchus mykiss"}, "[7]": {"system": "Neomysis kadiakensis", "conditions": "chronic/long-term; duration: 28 days"}, "[8]": {"system": "Apis mellifera", "conditions": "acute, mortality"}, "[9]": {"system": "Tagia sp."}, "[10]": {"system": "Rattus norvegicus"}, "[11]": {"system": "Cyprinodon variegatus"}, "[12]": {"system": "Canidae", "conditions": "oral, Dog Other, clinical signs"}, "[13]": {"system": "Aphidius rhopalosiphi", "assay": "LR50; higher = less toxic", "conditions": "not reported; mortality"}, "[14]": {"conditions": "short-term, duration: 5 days, oral, diet, food consumption"}}, "note": "Several values for one entry are separate records, joined by “and”; a condition that tells them apart may be missing. Equal values may be shown once.", "data": [{"smiles": "N#Cc1nn(-c2c(Cl)cc(C(F)(F)F)cc2Cl)c(N)c1S(=O)(=O)C(F)(F)F", "note": "[Fipronil sulfone]", "values": [{"measurement": "NOEC", "setting": "[1]", "result": "6.9e-05", "unit": "mg/L"}, {"measurement": "NOEC", "setting": "[1]; duration: 28 days", "result": 0.000165, "unit": "mg/kg"}, {"measurement": "NOEL", "setting": "[2]; [14]", "result": 7.83, "unit": "mg/kg-day"}, {"measurement": "LC50", "setting": "[3]", "result": "> 1000", "unit": "mg/kg"}, {"measurement": "LC50", "setting": "[4]", "result": 0.025, "unit": "µg/mL"}]}, {"smiles": "N#Cc1nn(-c2c(Cl)cc(C(F)(F)F)cc2Cl)c(N)c1C(F)(F)F", "note": "[Fipronil desulfinyl]", "values": [{"measurement": "NOEL", "setting": "[2]; [14]", "result": 7.12, "unit": "mg/kg-day"}]}, {"smiles": "N#Cc1nn(-c2c(Cl)cc(C(F)(F)F)cc2Cl)c(N)c1SC(F)(F)F", "note": "[Fipronil sulfide]", "values": [{"measurement": "NOEC", "setting": "[1]; duration: 28 days", "result": "0.000117 mg/L and 0.000193 mg/kg"}, {"measurement": "NOEC", "setting": "[5]", "result": 0.013, "unit": "mg/L"}, {"measurement": "NOEL", "setting": "[2]; [14]", "result": 6.98, "unit": "mg/kg-day"}, {"measurement": "LC50", "setting": "[3]", "result": "> 1000", "unit": "mg/kg"}, {"measurement": "LC50", "setting": "[6]; acute, duration: 96 hours, mortality", "result": 0.0295, "unit": "µg/mL"}, {"measurement": "NOEC", "setting": "[7]", "result": "4.6e-06", "unit": "mg/L"}]}, {"smiles": "N#Cc1nn(-c2c(Cl)cc(C(F)(F)F)cc2Cl)c(N)c1S(=O)C(F)(F)F", "note": "(centres undefined) [Fipronil]", "values": [{"measurement": "LD50", "setting": "[8]; dermal", "result": 0.00593, "unit": "µg/piece"}, {"measurement": "LD50", "setting": "[8]; oral, unspecified", "result": 0.00417, "unit": "µg/piece"}, {"measurement": "NOEC", "setting": "[1]", "result": 0.000193, "unit": "mg/kg"}, {"measurement": "NOEC", "setting": "[1]; duration: 28 days", "result": 0.000117, "unit": "mg/L"}, {"measurement": "NOEC", "setting": "[5]", "result": 0.0098, "unit": "mg/L"}, {"measurement": "LC50", "setting": "[9]; acute, mortality", "result": "> 1000", "unit": "mg/kg"}, {"measurement": "NOEC", "setting": "[9]; chronic/long-term", "result": 1000, "unit": "mg/kg"}, {"measurement": "LD50", "setting": "[10]; acute, oral, M, mortality", "result": 92, "unit": "mg/kg"}, {"measurement": "NOAEL", "setting": "[10]; chronic, duration: 2 years, clinical signs", "result": 0.02, "unit": "mg/kg-day"}, {"measurement": "NOAEL", "setting": "[10]; developmental, development", "result": 0.9, "unit": "mg/kg-day"}, {"measurement": "NOEL", "setting": "[10]; reproduction developmental, M, reproduction", "result": 2.53, "unit": "mg/kg-day"}, {"measurement": "NOAEL", "setting": "[10]; subchronic, duration: 90 days, oral, clinical signs", "result": 0.35, "unit": "mg/kg-day"}, {"measurement": "LD50", "setting": "[2]; acute, oral, mortality", "result": 11.3, "unit": "mg/kg"}, {"measurement": "NOEL", "setting": "[2]; reproduction developmental", "result": 0.88, "unit": "mg/kg-day"}, {"measurement": "NOEL", "setting": "[2]; [14]", "result": 3.77, "unit": "mg/kg-day"}, {"measurement": "LC50", "setting": "[4]; mortality", "result": 0.0852, "unit": "µg/mL"}, {"measurement": "NOEC", "setting": "[6]; chronic/long-term, duration: 90 days", "result": 0.015, "unit": "mg/L"}, {"measurement": "LC50", "setting": "[11]; acute, duration: 96 hours", "result": 0.13, "unit": "µg/mL"}, {"measurement": "NOEC", "setting": "[11]; chronic/long-term, duration: 138 days", "result": 0.006, "unit": "mg/L"}, {"measurement": "NOAEL", "setting": "[12]; chronic, duration: 1 years", "result": 0.35, "unit": "mg/kg-day"}, {"measurement": "NOAEL", "setting": "[12]; subchronic, duration: 90 days", "result": 0.35, "unit": "mg/kg-day"}, {"measurement": "LR50", "setting": "[13]", "result": 0.01, "unit": "g/ha"}]}]}
